Measured values published in patent US20190375708A1 (VenatoRx Pharmaceuticals, Inc., priority 2018, published 2019).
pEC50: −log10 of the molar value.

What was measured:
[1] = system: HBV replication in HepAD38 cells; assay: Anti-HBV replication assay in HepAD38 cells (QPCR of extracellular HBV DNA); format: cell-based, HBV (genotype D, serotype ayw); settings: Hepatitis B virus, 168 h, 7 days incubation, extracellular HBV DNA by QPCR, read-out: Anti-HBV EC50
How it was run: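 HepAD38 cells (HepG2 carrying tet-repressible HBV genotype D genome) induced by tetracycline withdrawal, treated 7 days at 37 °C with compound ([…], 1-log10 dilutions). Extracellular HBV DNA quantified by QPCR against a standard curve, normalised to DMSO; EC50 from 4-parameter fit.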

[2] = In vitro cytotoxicity assay (MTT cell viability) in HepG2 cells; format: cell-based, human; settings: human
How it was run: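 Read-out: MTT formazan absorbance at 492 nm, expressed as % of vehicle signal; CC50 by 4-parameter non-linear regression. Parental HepG2, 20,000 cells/well, treated 7 days with compound from 30 μM down to 1.0 nM.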

SMILES | pEC50 [1] | CC50 at 7 days [2] [µM]
Cc1c(C(=O)Nc2ccc(F)nc2)c(C)n(C)c1C(=O)C(=O)NC1(C)CCOCC1 [Example 325, N-(6-fluoropyridin-3-yl)-1,2,4-trimethyl-5-(2-((4-methyltetrahydro-2H-pyran-4-yl)amino)-2-oxoacetyl)-1H-pyrrole-3-carboxamide] | 6.30 to 7.30 | > 30
Cc1cc(NC(=O)c2cc(C(=O)C(=O)NC3(C(F)(F)F)CCC3)n3c2CCCC3)ccc1F [Example 403] | 6.30 to 7.30 | > 30
CNC(=O)[C@@H](NC(=O)C(=O)c1c(C)c(C(=O)Nc2ccc(F)c(C)c2)c(C)n1C)C1CCC1 [Example 124, (S)-5-(2-((1-cyclobutyl-2-(methylamino)-2-oxoethyl)amino)-2-oxoacetyl)-N-(4-fluoro-3-methylphenyl)-1,2,4-trimethyl-1H-pyrrole-3-carboxamide] | > 7.30 | 5 to 30
CC(C)(CO)NC(=O)C(=O)c1c(Cl)c(C(=O)Nc2ccc(F)c(F)c2)c2n1CCCC2 [Example 492, 2-chloro-N-(3,4-difluorophenyl)-3-(2-((1-hydroxy-2-methylpropan-2-yl)amino)-2-oxoacetyl)-5,6,7,8-tetrahydroindolizine-1-carboxamide] | > 7.30 | 5 to 30
Cc1cc(NC(=O)c2c(C)c(C(=O)C(=O)N[C@H](C)C(F)(F)F)n3c2CCCC3)cnc1F [Example 469, (R)-N-(6-fluoro-5-methylpyridin-3-yl)-2-methyl-3-(2-oxo-2-((1,1,1-trifluoropropan-2-yl)amino)acetyl)-5,6,7,8-tetrahydroindolizine-1-carboxamide] | 6.00 to 6.30 | 5 to 30
Cc1cc(NC(=O)c2c(C)c(C(=O)C(=O)NC3CCSCC3)n(C)c2C)ccc1F [Example 223, N-(4-fluoro-3-methylphenyl)-1,2,4-trimethyl-5-(2-oxo-2-((tetrahydro-2H-thiopyran-4-yl)amino)acetyl)-1H-pyrrole-3-carboxamide] | > 7.30 | 5 to 30
Cc1cc(NC(=O)c2c(C)c(C(=O)C(=O)NC3CCN(C)C(=O)C3)n(C)c2C)ccc1F (stereo not drawn) [Example 609, N-(4-fluoro-3-methylphenyl)-1,2,4-trimethyl-5-(2-((1-methyl-2-oxopiperidin-4-yl)amino)-2-oxoacetyl)-1H-pyrrole-3-carboxamide] | > 7.30 | > 30
Cc1cc(NC(=O)c2c(C)c(C(=O)C(=O)NC3CCNCC3)n(C)c2C)ccc1F [Example 233, N-(4-fluoro-3-methylphenyl)-1,2,4-trimethyl-5-(2-oxo-2-(piperidin-4-ylamino)acetyl)-1H-pyrrole-3-carboxamide] | 6.30 to 7.30 | > 30
Cc1c(C(=O)Nc2ccc(F)c(F)c2)c2n(c1C(=O)C(=O)NCC(C)(C)CO)CCCC2 [Example 461, N-(3,4-difluorophenyl)-3-(2-((3-hydroxy-2,2-dimethylpropyl)amino)-2-oxoacetyl)-2-methyl-5,6,7,8-tetrahydroindolizine-1-carboxamide] | > 7.30 | 5 to 30
Cc1cc(NC(=O)c2c(C)c(C(=O)C(=O)N3CCC(O)C(C)(C)C3)n(C)c2C)ccc1F (stereo not drawn) [Example 53, N-(4-fluoro-3-methylphenyl)-5-(2-(4-hydroxy-3,3-dimethylpiperidin-1-yl)-2-oxoacetyl)-1,2,4-trimethyl-1H-pyrrole-3-carboxamide] | 6.30 to 7.30 | > 30
Cc1c(C(=O)Nc2cccc(Cl)c2)c(C)n(C)c1C(=O)C(=O)N[C@H](C)C(F)(F)F [Example 603, (R)-N-(3-chlorophenyl)-1,2,4-trimethyl-5-(2-oxo-2-((1,1,1-trifluoropropan-2-yl)amino)acetyl)-1H-pyrrole-3-carboxamide] | > 7.30 | 5 to 30
CC(C)(O)CNC(=O)C(=O)c1c(Cl)c(C(=O)Nc2ccc(F)c(F)c2)c2n1CCC2 [Example 560, 6-chloro-N-(3,4-difluorophenyl)-5-(2-((2-hydroxy-2-methylpropyl)amino)-2-oxoacetyl)-2,3-dihydro-1H-pyrrolizine-7-carboxamide] | > 7.30 | > 30
Cc1cc(NC(=O)c2c(C)c(C(=O)C(=O)NC3(C(=O)N[C@]4(C)C[C@H](O)C4)CCOCC3)n(C)c2C)ccc1F [Example 683, N-(4-fluoro-3-methylphenyl)-5-(2-((4-(((1s,3s)-3-hydroxy-1-methylcyclobutyl)carbamoyl)tetrahydro-2H-pyran-4-yl)amino)-2-oxoacetyl)-1,2,4-trimethyl-1H-pyrrole-3-carboxamide] | > 7.30 | > 30
Cc1cc(NC(=O)c2c(C)c(C(=O)C(=O)N3C4CCCC3CC(=O)C4)n(C)c2C)cnc1F [Example 193, N-(6-fluoro-5-methylpyridin-3-yl)-1,2,4-trimethyl-5-(2-oxo-2-(3-oxo-9-azabicyclo[3.3.1]nonan-9-yl)acetyl)-1H-pyrrole-3-carboxamide] | < 6.00 | > 30
Cc1cc(NC(=O)c2cc(C(=O)C(=O)N[C@H](C)C(C)(F)F)n3c2CCCC3)ccc1F [Example 428, (R)-3-(2-((3,3-difluorobutan-2-yl)amino)-2-oxoacetyl)-N-(4-fluoro-3-methylphenyl)-5,6,7,8-tetrahydroindolizine--1 carboxamide] | 6.30 to 7.30 | > 30
Cc1cc(NC(=O)c2c(Cl)c(C(=O)C(=O)NCc3cnc(N)s3)n3c2CCC3)cnc1F [Example 734, 5-(2-(((2-aminothiazol-5-yl)methyl)amino)-2-oxoacetyl)-6-chloro-N-(6-fluoro-5-methylpyridin-3-yl)-2,3-dihydro-1H-pyrrolizine-7-carboxamide] | > 7.30 | > 30
Cc1cc(NC(=O)c2c(C)c(C(=O)C(=O)N[C@H](C(=O)O)C(C)(C)C)n(C)c2C)ccc1F [Example 30, (S)-2-(22-(4-((4-fluoro-3-methylphenyl)carbamoyl)-1,3,5-trimethyl-1H-pyrrol-2-yl)-2-oxoacetamido)-3,3-dimethylbutanoic acid] | < 6.00 | > 30
O=C(NC1(CO)CCC1)C(=O)c1c(Cl)c(C(=O)Nc2ccc(F)c(F)c2)c2n1CCOC2 [Example 584, 7-chloro-N-(3,4-difluorophenyl)-6-(2-((1-(hydroxymethyl)cyclobutyl)amino)-2-oxoacetyl)-3,4-dihydro-1H-pyrrolo[2,1-c][1,4]oxazine-8-carboxamide] | > 7.30 | 5 to 30
Cc1noc([C@H](C)NC(=O)C(=O)c2c(Cl)c(C(=O)Nc3ccnc(F)c3)c3n2CCCC3)n1 [Example 509, (S)-2-chloro-N-(2-fluororpyridin-4-yl)-3-(2-((1-(3-methyl-1,2,4-oxadiazol-55-yl)ethyl)amino)-2-oxoacetyl)-5,6,7,8-tetrahydroindoliznie-1-carboxamide] | 6.00 to 6.30 | > 30
Cc1cc(NC(=O)c2c(C)c(C(=O)C(=O)NC3CCN(c4cccs4)CC3)n(C)c2C)ccc1F [Example 655] | 6.30 to 7.30 | > 30
Cc1cc(NC(=O)c2c(Cl)c(C(=O)C(=O)NC3(CO)CC(F)(F)C3)n3c2CCC3)cnc1F [Example 579, 6-chloro-5-(2-((3,3-difluoro-1-(hydroxymethyl)cyclobutyl)amino)-2-oxoacetyl)-N-(6-fluoro-5-methylpyridin-3-yl)-2,3-dihydro-1H-pyrrolizine-7-carboxamide] | 6.00 to 6.30 | > 30
Cc1c(C(=O)Nc2ccnc(F)c2)c(C)n(C)c1C(=O)C(=O)NC(C)(C)C(F)(F)F [Example 172, N-(2-fluoropyridin-4-yl)-1,2,4-trimethyl-5-(2-oxo-2-((1,1,1-trifluoro-2-methylpropan-2-yl)amino)acetyl)-1H-pyrrole-3-carboxamide] | > 7.30 | > 30
Cc1cc(NC(=O)c2c(C)c(C(=O)C(=O)N[C@H]3COC[C@@H]3O)n3c2CCCC3)ccc1F [Example 439, N-(4-fluoro-3-methylphenyl)-3-(2-(((3S,4R)-4-hydroxytetrahydrofuran-3-yl)amino)-2-oxoacetyl)-2-methyl-5,6,7,8-tetrahydroindolizine-1-carboxamide] | 6.30 to 7.30 | > 30
Cc1cc(NC(=O)c2c(C)c(C(=O)C(=O)NC3(C)CCN(S(C)(=O)=O)CC3)n(C)c2C)ccc1F [Example 613, N-(4-fluoro-3-methylphenyl)-1,2,4-trimethyl-5-(2-((4-methyl-1-(methylsulfonyl)piperidin-4-yl)amino)-2-oxoacetyl)-1H-pyrrole-3-carboxamide] | > 7.30 | > 30
Cc1cc(NC(=O)c2c(C)c(C(=O)C(=O)N[C@H]3CC[C@H](C(C)(C)O)CC3)n(C)c2C)ccc1F [Example 677, N-(4-fluoro-3-methylphenyl)-5-(2-(((1r,4r)-4-(2-hydroxypropan-2-yl)cyclohexyl)amino)-2-oxoacetyl)-1,2,4-trimethyl-1H-pyrrole-3-carboxamide] | > 7.30 | > 30
Cc1nc2c(s1)C(NC(=O)C(=O)c1c(C)c(C(=O)Nc3cnc(F)c(C)c3)c(C)n1C)CCC2 (stereo not drawn) [Example 606, N-(6-fluoro-5-methylpyridin-3-yl)-1,2,4-trimethyl-5-(2-((2-methyl-4,5,6,7-tetrahydrobenzo[d]thiazol-7-yl)amino)-2-oxoacetyl)-1H-pyrrole-3-carboxamide] | > 7.30 | > 30
Cc1cc(NC(=O)c2c(C)c(C(=O)C(=O)N[C@@H](C(=O)O)C(C)C)n(C)c2C)ccc1F [Example 101, (2-(4-((4-fluoro-3-methylphenyl)carbamoyl)-1,3,5-trimethyl-1H-pyrrol-2-yl)-2-oxoacetyl)-D-valine] | < 6.00 | 5 to 30
